In patent publication US20100099561A1, “HETEROBICYCLIC ALKYLTHIO-BRIDGED ISOXAZOLINES” (E.I. DU PONT DE NEMOURS AND COMPANY, priority 2008, published 2010):

Legend:
Assay type in all cases: in vivo
[1] = tested on: giant foxtail (Setaria faberi); test: Test A preemergence, giant foxtail; details: 0 to 100 scale (0 no effect, 100 complete control)
In short: (§1)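 Seeds planted in loam–sand blend; compounds in non-phytotoxic solvent with surfactant applied as directed preemergence soil spray, or postemergence to plants 2–10 cm tall at one- to two-leaf stage. After ~10 days in greenhouse, injury rated visually versus untreated controls on 0–100 scale (100 = complete control).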

[2] = tested on: morningglory (Ipomoea spp.); test: Test A preemergence, morningglory; details: 0 to 100 scale (0 no effect, 100 complete control)
In short: as §1

[3] = tested on: pigweed (Amaranthus retroflexus); test: Test A preemergence, pigweed; details: 0 to 100 scale (0 no effect, 100 complete control)
In short: as §1

[4] = tested on: morningglory (Ipomoea spp.); test: Test A postemergence, morningglory; details: 0 to 100 scale (0 no effect, 100 complete control)
In short: as §1

corn (Zea mays) = test: Test A postemergence, corn; details: 0 to 100 scale (0 no effect, 100 complete control)
In short: as §1

[5] = tested on: green foxtail (Setaria viridis); test: Test B preemergence, green foxtail; details: scale 0 to 100
Text: (§2) Seeds of plant species selected from blackgrass (Alopecurus myosuroides), downy bromegrass (Bromus tectorum), green foxtail (Setaria viridis), Italian ryegrass (Lolium multiflorum), wheat (Triticum aestivum), wild oat (Avena fatua), catchweed bedstraw (Galium aparine), bermudagrass (Cynodon dactylon), Surinam grass (Brachiaria decumbens), cocklebur (Xanthium strumarium), corn (Zea mays), large crabgrass (Digitaria sanguinalis), woolly cupgrass (Eriochloa villosa), giant foxtail (Setaria faberii), goosegrass (Eleusine indica), johnsongrass (Sorghum halepense), kochia (Kochia scoparia), lambsquarters (Chenopodium album), morningglory (Ipomoea coccinea), nightshade (eastern black nightshade, Solanum ptycanthum), yellow nutsedge (Cyperus esculentus), pigweed (Amaranthus retroflexus), ragweed (common ragweed, Ambrosia elatior), soybean (Glycine max), sunflower (common oilseed sunflower, Helianthus annuus), Russian thistle (Salsola kali), and velvetleaf (Abutilon theophrasti) were planted into a blend of loam soil and sand and treated preemergence with test compounds formulated in a non-phytotoxic solvent mixture which included a surfactant. Treated plants and controls were maintained in a greenhouse for 13 to 15 days, after which time all species were compared to controls and visually evaluated. Plant response ratings, summarized in Table B, are based on a scale of 0 to 100 where 0 is no effect and 100 is complete control. A dash (-) response means no test result.

[6] = tested on: Italian ryegrass (Lolium multiflorum); test: Test B preemergence, Italian ryegrass; details: Preemergence, scale 0 to 100
Text: as §2

[7] = tested on: wheat (Triticum aestivum); test: Test B preemergence, wheat; details: Preemergence, scale 0 to 100
Text: as §2

wild oat (Avena fatua) = test: Test B preemergence, wild oat; details: scale 0 to 100
Text: as §2

[8] = tested on: bermudagrass (Cynodon dactylon); test: Test B preemergence, bermudagrass; details: scale 0 to 100
Text: as §2

[9] = tested on: cocklebur (Xanthium strumarium); test: Test B preemergence, cocklebur; details: scale 0 to 100
Text: as §2

[10] = tested on: woolly cupgrass (Eriochloa villosa); test: Test B preemergence, woolly cupgrass; details: scale 0 to 100
Text: as §2

[11] = tested on: giant foxtail (Setaria faberii); test: Test B preemergence, giant foxtail; details: scale 0 to 100
Text: as §2

[12] = tested on: goosegrass (Eleusine indica); test: Test B preemergence, goosegrass; details: scale 0 to 100
Text: as §2

[13] = tested on: johnsongrass (Sorghum halepense); test: Test B preemergence, johnsongrass; details: scale 0 to 100
Text: as §2

[14] = tested on: pigweed (Amaranthus retroflexus); test: Test B preemergence, pigweed; details: scale 0 to 100
Text: as §2

[15] = tested on: umbrella sedge (Cyperus difformis); test: Test B flooded paddy test, umbrella sedge; details: Flood, scale 0 to 100
In short: (§3)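 Paddy-water application to 2-leaf plants in pots held under 3 cm of flooding; response is a 0–100 visual control rating against controls after 13 to 15 days, and a dash marks a missing result.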

[16] = tested on: ducksalad (Heteranthera limosa); test: Test B flooded paddy test, ducksalad; details: Flood, scale 0 to 100
In short: as §3

[17] = tested on: barnyardgrass (Echinochloa crus-galli); test: Test B flooded paddy test, barnyardgrass; details: Flood
In short: as §3

**Q.** With `CC1(C)CC(S(=O)(=O)Cc2c(C(F)(F)F)nc3n(c2=O)CCO3)=NO1` [Compound 2, 6-[[(4,5-dihydro-5,5-dimethyl-3-isoxazolyl)sulfonyl]methyl]-2,3-dihydro-7-(trifluoromethyl)-5H-oxazolo[3,2-α]pyrimidin-5-one] as the compound, how does the “Plant response rating, Foxtail, Giant” value ([1]; 125 g ai/ha) read?
**A.** The value was 90.

**Q.** And the “Plant response rating, Foxtail, Giant” value ([1]; 500 g ai/ha)?
**A.** The value was 100.

**Q.** What about the “Plant response rating, Morningglory” value ([2]; 125 g ai/ha) of the same compound?
**A.** Its value is 0.

**Q.** And the “Plant response rating, Morningglory” value ([2]; 500 g ai/ha)?
**A.** Its value is 80.

**Q.** And the “Plant response rating, Pigweed” value ([3]; 125 g ai/ha)?
**A.** Its value is 20.

**Q.** What about the “Plant response rating, Pigweed” value ([3]; 500 g ai/ha) of the same compound?
**A.** The value was 60.

**Q.** What about the “Plant response rating, Morningglory” value ([4]; 125 g ai/ha) of the same compound?
**A.** Its value is 30.

**Q.** And the “Plant response rating, Morningglory” value ([4]; 500 g ai/ha)?
**A.** The value was 70.

**Q.** What about the “Plant response rating, Corn” value (corn (Zea mays); 125 g ai/ha) of the same compound?
**A.** Its value is 0.

**Q.** And the “Plant response rating, Corn” value (corn (Zea mays); 500 g ai/ha)?
**A.** Its value is 50.

**Q.** What about the “Plant response rating, Foxtail, Green” value ([5]; 8 g ai/ha) of the same compound?
**A.** The value was 0.

**Q.** And the “Plant response rating, Foxtail, Green” value ([5]; 16 g ai/ha)?
**A.** The value was 10.

**Q.** What about the “Plant response rating, Foxtail, Green” value ([5]; 31 g ai/ha) of the same compound?
**A.** Its value is 55.

**Q.** What about the “Plant response rating, Foxtail, Green” value ([5]; 62 g ai/ha) of the same compound?
**A.** Its value is 85.

**Q.** What about the “Plant response rating, Ryegrass, Italian” value ([6]; 16 g ai/ha) of the same compound?
**A.** The value was 0.

**Q.** What about the “Plant response rating, Ryegrass, Italian” value ([6]; 31 g ai/ha) of the same compound?
**A.** The value was 0.

**Q.** What about the “Plant response rating, Ryegrass, Italian” value ([6]; 62 g ai/ha) of the same compound?
**A.** Its value is 0.

**Q.** What about the “Plant response rating, Wheat” value ([7]; 16 g ai/ha) of the same compound?
**A.** The value was 0.

**Q.** And the “Plant response rating, Wheat” value ([7]; 31 g ai/ha)?
**A.** The value was 0.

**Q.** What about the “Plant response rating, Wheat” value ([7]; 62 g ai/ha) of the same compound?
**A.** The value was 0.

**Q.** What about the “Plant response rating, Oat, Wild” value (wild oat (Avena fatua); 8 g ai/ha) of the same compound?
**A.** Its value is 0.

**Q.** And the “Plant response rating, Oat, Wild” value (wild oat (Avena fatua); 16 g ai/ha)?
**A.** The value was 0.

**Q.** What about the “Plant response rating, Oat, Wild” value (wild oat (Avena fatua); 31 g ai/ha) of the same compound?
**A.** Its value is 0.

**Q.** What about the “Plant response rating, Oat, Wild” value (wild oat (Avena fatua); 62 g ai/ha) of the same compound?
**A.** The value was 25.

**Q.** And the “Plant response rating, Bermudagrass” value ([8]; 8 g ai/ha)?
**A.** The value was 0.

**Q.** And the “Plant response rating, Bermudagrass” value ([8]; 16 g ai/ha)?
**A.** The value was 0.

**Q.** What about the “Plant response rating, Bermudagrass” value ([8]; 31 g ai/ha) of the same compound?
**A.** The value was 75.

**Q.** And the “Plant response rating, Bermudagrass” value ([8]; 62 g ai/ha)?
**A.** The value was 85.

**Q.** And the “Plant response rating, Cocklebur” value ([9]; 8 g ai/ha)?
**A.** The value was 0.

**Q.** What about the “Plant response rating, Cocklebur” value ([9]; 16 g ai/ha) of the same compound?
**A.** Its value is 0.

**Q.** And the “Plant response rating, Cocklebur” value ([9]; 31 g ai/ha)?
**A.** Its value is 0.

**Q.** And the “Plant response rating, Cocklebur” value ([9]; 62 g ai/ha)?
**A.** Its value is 0.

**Q.** And the “Plant response rating, Cupgrass, Woolly” value ([10]; 8 g ai/ha)?
**A.** The value was 0.

**Q.** And the “Plant response rating, Cupgrass, Woolly” value ([10]; 16 g ai/ha)?
**A.** The value was 75.

**Q.** What about the “Plant response rating, Cupgrass, Woolly” value ([10]; 31 g ai/ha) of the same compound?
**A.** Its value is 75.

**Q.** What about the “Plant response rating, Cupgrass, Woolly” value ([10]; 62 g ai/ha) of the same compound?
**A.** Its value is 95.

**Q.** And the “Plant response rating, Foxtail, Giant” value ([11]; 8 g ai/ha)?
**A.** The value was 0.

**Q.** And the “Plant response rating, Foxtail, Giant” value ([11]; 16 g ai/ha)?
**A.** Its value is 50.

**Q.** And the “Plant response rating, Foxtail, Giant” value ([11]; 31 g ai/ha)?
**A.** The value was 70.

**Q.** And the “Plant response rating, Foxtail, Giant” value ([11]; 62 g ai/ha)?
**A.** Its value is 98.

**Q.** And the “Plant response rating, Goosegrass” value ([12]; 8 g ai/ha)?
**A.** The value was 0.

**Q.** What about the “Plant response rating, Goosegrass” value ([12]; 16 g ai/ha) of the same compound?
**A.** Its value is 65.

**Q.** And the “Plant response rating, Goosegrass” value ([12]; 31 g ai/ha)?
**A.** The value was 75.

**Q.** And the “Plant response rating, Goosegrass” value ([12]; 62 g ai/ha)?
**A.** Its value is 80.

**Q.** And the “Plant response rating, Johnsongrass” value ([13]; 8 g ai/ha)?
**A.** The value was 0.

**Q.** What about the “Plant response rating, Johnsongrass” value ([13]; 16 g ai/ha) of the same compound?
**A.** The value was 10.

**Q.** What about the “Plant response rating, Johnsongrass” value ([13]; 31 g ai/ha) of the same compound?
**A.** The value was 30.

**Q.** What about the “Plant response rating, Johnsongrass” value ([13]; 62 g ai/ha) of the same compound?
**A.** Its value is 80.

**Q.** And the “Plant response rating, Pigweed” value ([14]; 8 g ai/ha)?
**A.** Its value is 0.

**Q.** What about the “Plant response rating, Pigweed” value ([14]; 16 g ai/ha) of the same compound?
**A.** Its value is 0.

**Q.** And the “Plant response rating, Pigweed” value ([14]; 31 g ai/ha)?
**A.** Its value is 0.

**Q.** And the “Plant response rating, Pigweed” value ([14]; 62 g ai/ha)?
**A.** Its value is 0.

**Q.** And the “Plant response rating, Sedge, Umbrella” value ([15]; 62 g ai/ha)?
**A.** The value was 0.

**Q.** And the “Plant response rating, Sedge, Umbrella” value ([15]; 250 g ai/ha)?
**A.** Its value is 0.

**Q.** What about the “Plant response rating, Ducksalad” value ([16]; 62 g ai/ha) of the same compound?
**A.** The value was 0.

**Q.** And the “Plant response rating, Ducksalad” value ([16]; 250 g ai/ha)?
**A.** Its value is 0.

**Q.** And the “Plant response rating, Barnyardgrass” value ([17]; 62 g ai/ha, scale 0 to 100)?
**A.** The value was 0.

**Q.** And the “Plant response rating, Barnyardgrass” value ([17]; 250 g ai/ha, scale 0 to 100 (0 no effect, 100 complete control))?
**A.** Its value is 0.
